Test results from US6723522B1, “Sodium bicarbonate cotransporter protein” (Takeda Chemical Industries, Ltd., priority 1998, dated 2004).

System: human heart-derived protein hNBC2b (Na+—HCO3− cotransporter)
Assay: Analysis of functions of human heart-derived protein by intracellular pH measurement (BCECF, ammonium pre-pulse) in hNBC2b-33/CHO-K1 cell
Type: cell-based
Details: DIDS final concentration 100 μM, 1 mM amyloride present
Description: Data is expressed as mean±standard error. Comparison between 2 groups was carried out by T test and p<0.001 was determined to be significant. hNBC2b-33/CHO-K1 cell which had been cultured in Ham F12 medium (manufactured by Nissuiseiyaku) containing 10% bovine fetal serum (manufactured by Life Technologies, Inc.; USA) and wild type CHO-K1 cell as a control were seeded on a 96-well white plate to 2×10^4 cells/well, and cultured in a carbonic gas incubator at 37° C. for 48 hours. […] The solution was aspiration-removed, washed with 150 μl of A solution, the solution was aspiration-removed, 150 μl of A solution containing 1 mM amyloride (manufactured by Sigma) was added, and variation in an intracellular pH was measured with a fluorescent drug screening system FDSS 2000 (Hamamatsu Photonics). 200 μl of C solution (115 mM sodium chloride, 25 mM potassium chloride, 25 mM sodium bicarbonate, 0.8 mM dipotassium phosphate, 0.2 mM monopotassium phosphate, 1 mM potassium chloride, 1 mM magnesium chloride, 1 mM amyloride (manufactured by Sigma), 10 mM HEPES, pH 7.4) was added, and an increased amount of an intracellular pH increased in 1 minute (a ratio of fluorescent values at 450 nm and 490 nm (450 nm/490 nm)) was calculated. […]

Structure (SMILES): O=S(=O)(O)c1cc(N=C=S)ccc1C=Cc1ccc(N=C=S)cc1S(=O)(=O)O [DIDS, 4,4′-diisothiocyanatostilbene-2,2′-disulfonic acid]
- increase in an intracellular pH after addition of C solution containing sodium ions and bicarbonate ions (ratio of fluorescent values 450 nm/490 nm): suppressed
